Experimental data taken from patent publication US8980323B2, “Hydrophilic matrix containing poorly water-soluble compound and method for producing the same” (FUJIFILM Corporation, priority 2006, dated 2015).
In brackets after ≈: the same amount, converted by molar mass. Where two headings read alike, the source gives them in different places.

Legend:
[1] = Solubility in 1,1,1,3,3,3-hexafluoro-2-propanol (HFIP); settings: for solubility: 1,1,1,3,3,3-hexafluoro-2-propanol (HFIP), organic solvent or mixture, thermodynamic from solid
Method: The solubility in hexafluoroisopropanol is determined as described below according to the present invention. A mixture is prepared by adding a compound to 1,1,1-3,3,3-hexafluoro-2-propanol while changing the concentration of the compound in a stepwise manner, and the concentration at which precipitation takes place is examined. Thus, the solubility of the compound in 1,1,1-3,3,3-hexafluoro-2-propanol is determined. In addition, a soluble/insoluble state is determined by confirming the presence of a deposit after centrifugation of the above mixture with a micro centrifuge (Chibitan II XX42CF00T produced by Tech-Jam) for 20 seconds.

[2] = Stereo-microscopic observation of drug-containing hydrophilic matrix films and gels (finely-dispersed state / precipitation); assay type: physicochemical; parameters: key: ∘: contained in a finely-dispersed state; Δ: partially precipitated; settings: gelatin film cast from HFIP, stereo microscope; for State of drug in gelatin film, Drug/gelatin mass proportion 0.1%: drug/gelatin 0.1%; for State of drug in gelatin film, Drug/gelatin mass proportion 1.0%: drug/gelatin 1.0%; for State of drug in gelatin film, Drug/gelatin mass proportion 5.0%: drug/gelatin 5.0%
Method: The term “in a finely-dispersed state” used herein refers to a condition in which the contained poorly water-soluble drug, which is a compound of a size that cannot be detected with a stereo microscope (MZ16A produced by Leica), is uniformly dispersed in a matrix, or a condition in which such a drug is in a molecular dispersion state in a matrix.
Paclitaxel (produced by LCL laboratories) was used as a poorly water-soluble compound. […] 1,1,1,3,3,3-hexafluoro-2-propanol solution (HFIP; 200 μL) containing paclitaxel (1 mg/mL) and gelatin (100 mg/mL; PSK gelatin produced by Nippi Inc.) was coated on a polypropylene dish (2 cm×2 cm×500 μm), followed by drying at an ordinary temperature for 15 hours. Thus, a paclitaxel-containing gelatin film was produced.
Upon observation with a stereo microscope (produced by Leica, MZ16A), precipitation of paclitaxel was not observed. […] In addition, the gel produced with HFIP and subjected to crosslinking with transglutaminase and water swelling was transparent.
Observation was carried out in the same manner as in Example 2.
Drug-containing gelatin films were produced in the same manner as in Example 1 except that paclitaxel used in Example 1 was replaced by drugs with concentrations listed in Table 1 below. Observation was carried out in the same manner as in Example 2. […]

[3] = upper dissolution limit - lower precipitation limit, samples at 30, 50, 100, 200, 500 mg/ml

SMILES	solubility [1] [mg/mL]	State of drug in gelatin film, Drug/gelatin mass proportion 0.1% [2]	State of drug in gelatin film, Drug/gelatin mass proportion 1.0% [2]	State of drug in gelatin film, Drug/gelatin mass proportion 5.0% [2]	Solubility in HFIP [1, 3] [mg/mL]	Solubility in HFIP [1] [mg/mL]
CC(=O)Oc1ccccc1C(=O)O [Aspirin]	200 to 500 (≈ 1110 to 2780 mM)	∘	∘	∘		
CC12CCC(C(=O)C1=O)C2(C)C (centres unmarked) [Camphorquinone]	200 to 500 (≈ 1200 to 3010 mM)	∘	∘	∘		
CCN(CC)c1ccc2c(C)cc(=O)oc2c1 [Coumarin 1]		∘	∘	∘	200 to 500	
CCN(CC)c1ccc2cc(-c3nc4ccccc4s3)c(=O)oc2c1 [Coumarin 6]		∘	Precipitated	Precipitated		30 to 50
CC(=O)O[C@@]12CO[C@@H]1C[C@H](O)[C@@]1(C)C(=O)[C@H](O)C3=C(C)[C@@H](OC(=O)[C@H](O)[C@@H](NC(=O)OC(C)(C)C)c4ccccc4)C[C@@](O)([C@@H](OC(=O)c4ccccc4)[C@H]21)C3(C)C [Docetaxel]	100 to 200 (≈ 124 to 248 mM)	∘	∘	∘		
CN(C)c1ccc(N=Nc2ccccc2)cc1 [Methyl yellow]		∘	∘	Precipitated	50 to 100	
CC(=O)O[C@H]1C(=O)[C@@]2(C)[C@H]([C@H](OC(=O)c3ccccc3)[C@]3(O)C[C@H](OC(=O)[C@H](O)[C@@H](NC(=O)c4ccccc4)c4ccccc4)C(C)=C1C3(C)C)[C@]1(OC(C)=O)CO[C@@H]1C[C@@H]2O [Paclitaxel]	200 to 500 (≈ 234 to 586 mM)	∘	∘	∘	200 to 500	
O=C1NC(=O)C(c2ccccc2)(c2ccccc2)N1 [Phenytoin]	50 to 100 (≈ 198 to 396 mM)	∘	∘	Precipitated		
CO[C@H]1C[C@@H]2CC[C@@H](C)[C@@](O)(O2)C(=O)C(=O)N2CCCC[C@H]2C(=O)O[C@H]([C@H](C)C[C@@H]2CC[C@@H](O)[C@H](OC)C2)CC(=O)[C@H](C)/C=C(\C)[C@@H](O)[C@@H](OC)C(=O)[C@H](C)C[C@H](C)/C=C/C=C/C=C/1C [Rapamycin]	200 to 500 (≈ 219 to 547 mM)					
C=C1CC[C@H](O)C/C1=C/C=C1\CCC[C@]2(C)[C@@H]([C@H](C)CCCC(C)C)CC[C@@H]12 [Vitamin D3]		∘	∘	∘	200 to 500	
